From US20110269625A1, “Synergistic insecticidal mixtures” (Bayer CropScience AG, priority 2008, published 2011)

Assays:
Format in all cases: in vivo
[1] = test system: green peach aphid (Myzus persicae); experiment: Myzus persicae test (spray treatment of infested cabbage leaves)
Source text: (§1) The expected action for a given combination of two active ingredients can be calculated according to S. R. Colby, Weeds 15 (1967), 20-22) as follows:
(§2) • X is the kill rate, expressed in % of the untreated control, using the active ingredient A at an application rate of m g/ha or in a concentration of m ppm, • Y is the kill rate, expressed in % of the untreated control, using the active ingredient B at an application rate of n g/ha or in a concentration of n ppm, • E is the kill rate, expressed in % of the untreated control, using the active ingredients A and B at application rates of m and n g/ha or in a concentration of m and n ppm, then is
(§3) If the actual insecticidal kill rate is greater than that calculated, the kill rate of the combination is superadditive, i.e. there is a synergistic effect. In this case, the actually observed kill rate must be greater than the value calculated from the above formula for the expected kill rate (E).
Solvent: 7 parts by weight of dimethylformamide Emulsifier: 2 parts by weight of alkylaryl polyglycol ether
(§4) To produce an appropriate active ingredient formulation, 1 part by weight of active ingredient is mixed with the stated amounts of solvent and emulsifier, and the concentrate is diluted with emulsifier-containing water to the desired concentration.
Cabbage leaves (Brassica oleracea) severely infested by the green peach aphid (Myzus persicae) are treated by spraying with the active ingredient formulation in the desired concentration.
(§5) After the desired time, the kill rate in % is determined 100% means that all of the aphids have been killed; 0% means that none of the aphids have been killed. The kill rates determined are entered into Colby's formula.

[2] = test system: larvae of the mustard beetle (Phaedon cochleariae); experiment: Phaedon cochleariae larvae test (sprayed cabbage leaves populated with larvae); settings: 4 ppm, spray
Source text: as §1, §2, §3
Solvent: 7 parts by weight of dimethylformamide Emulsifier: 2 parts by weight of alkyl aryl polyglycol ether
as §4
Cabbage leaves (Brassica oleracea) are treated by spraying with the active ingredient formulation of the desired concentration and populated with larvae of the mustard beetle (Phaedon cochleariae) while the leaves are still moist.
After the desired time, the kill rate in % is determined 100% means that all beetle larvae have been killed; 0% means that none of the beetle larvae have been killed. The kill rates determined are entered into Colby's formula.

[3] = test system: cotton aphid (Aphis gossypii); experiment: Aphis gossypii test (spray treatment of infested cotton plants)
Source text: as §1, §2, §3
Solvent: 7 parts by weight of dimethylformamide Emulsifier: 2 parts by weight of alkylaryl polyglycol ether […]
as §5

C/C(=N\C#N)N(C)Cc1ccc(Cl)nc1 [acetamiprid]
Kill rate in % after 6 days ([1]; 0.8 ppm): 0% | Kill rate in % after 6 days [2]: 0%

CC1(C)[C@H](C=C(Cl)Cl)[C@H]1C(=O)OCc1c(F)c(F)cc(F)c1F [transfluthrin]
Kill rate in % after 6 days ([3]; 0.16 ppm): 0% | Kill rate in % after 1 d ([1]; 0.16 ppm): 0% | Kill rate in % after 6 days ([1]; 0.8 ppm): 0% | Kill rate in % after 6 days [2]: 0%

N#C/N=C1\SCCN1Cc1ccc(Cl)nc1 [thiacloprid]
Kill rate in % after 6 days ([3]; 0.8 ppm): 25% | Kill rate in % after 1 d ([1]; 0.8 ppm): 25% | Kill rate in % after 6 days [2]: 0%
